# From patent publication US5344831A, “Diazabicyclo derivatives” (Nisshin Flour Milling Co., Ltd., priority 1992, dated 1994)
# Assays:
# [1] = test system: 5-HT3 receptors; assay: antagonism of the von Bezold-Jarisch reflex (bradycardia) induced by 5-HT in the anaesthetised rat; assay type: in vivo; conditions: 5-HT 30 μg/kg given 5 min later, tested as hydrochloride salts
# Method: Temporary bradycardia is induced by administration of 5-HT (serotonin) to anaesthetised rats via jugular vein (yon Bezold Jarisch Reflex) (A. S. Paintal, Physiol. Rev., 53, 159-210 (1973 ) ).
# The compounds of the present invention were evaluated for antagonism of the yon Bezold-Jarisch reflex induced by 5-HT in the anaesthetised rat according to the following method.
# Rats were anaesthetised with urethane (1 g/kg, intraperitoneally ) and blood pressure and heart rate recorded from left femoral artery. Percent inhibition was calculated from bradycardia induced by 5-HT (30 μg/kg ) given 5 minutes following intrajugular administration of a compound of the invent ion, taking the bradycardia induced by the intrajugular administration of 5-HT. The compounds of the present invention were tested in the form of their hydrochloride salts.
# [2] = test system: nausea and vomiting; conditions: intravenous administration at high dose; Gralla et al, N. Engl. J. Med. 305, 905-909 (1981); cited from earlier work
SMILES,Percent Inhibition ([1]; 0.1 μg/kg i.v.),Percent Inhibition ([1]; 1.0 μg/kg i.v.),Percent Inhibition ([1]; 0.01 μg/kg i.v.),prevention of nausea and vomiting [2]
"CN1C[C@H]2C[C@@H](NC(=O)c3n[nH]c4ccccc34)C[C@@H](C1)N2Cc1ccccc1 [Example 24, endo-9-Benzyl-3-methyl-3,9-diazabicyclo[3.3.1]non-7-yl 1H-indazole-3-carboxamide]",35%,–,–,–
"CN1C[C@H]2C[C@@H](NC(=O)c3n[nH]c4ccccc34)C[C@@H](C1)N2 [Example 25, endo-3-Methyl-3,9-diazabicyclo[3.3.1]non-7-yl 1H-indazole-3-carboxamide]",21%,–,–,–
"C=CCN1C[C@H]2C[C@@H](NC(=O)c3n[nH]c4ccccc34)C[C@@H](C1)N2C [Example 26, endo-3-Allyl-9-methyl-3,9-diazabicyclo[3.3.1]non-7-yl 1H-indazole-3-carboxamide]",38%,–,–,–
"CN1[C@@H]2C[C@@H](NC(=O)c3n[nH]c4ccccc34)C[C@H]1CN(Cc1ccc(F)cc1)C2 [Example 27, endo-3-(4-Fluorobenzyl)-9-methyl-3,9-diazabicyclo[3.3.1]non-7-yl 1H-indazole-3-carboxamide]",75%,98%,–,–
"CC(=O)N1C[C@H]2C[C@@H](NC(=O)c3n[nH]c4ccccc34)C[C@@H](C1)N2C [Example 28, endo-3-Acetyl-9-methyl-3,9-diazabicyclo[3.3.1]non-7-yl 1H-indazola-3-carboxamide]",23%,71%,–,–
"CC(C)CN1C[C@H]2C[C@@H](NC(=O)c3n[nH]c4ccccc34)C[C@@H](C1)N2C [Example 29, endo-3-Isobutyl-9-methyl-3,9-diazabicyclo[3.3.1]non-7-yl 1H-indazole-3-carboxamide]",81%,–,27%,–
"CCOCCN1C[C@H]2C[C@@H](NC(=O)c3n[nH]c4ccccc34)C[C@@H](C1)N2C [Example 30, endo-3-(2-Ethoxyethyl)-9-methyl-3,9-diazabicyclo[3.3.1]non-7-yl 1H-indazole-3-carboxamide]",52%,100%,–,–
CCN(CC)CCNC(=O)c1cc(Cl)c(N)cc1OC [metoclopramide],–,–,–,effectively prevented
